Here are results for two molecules from ChEMBL document CHEMBL4825755 (J Med Chem, 2021).

Data set [1] in a line: Solubility in pH 6.5 FaSSIF incubated for 4 hrs using amorphous form of sample by UV-HPLC method. It counts as physicochemical.
A further data set concerns the target PI3K p110 beta/p85 alpha (Homo sapiens, UniProt P42338). Put plainly: Inhibition of recombinant human N-terminal His6-tagged full length P110beta/full length untagged human p85alpha expressed in baculovirus infected Sf21 insect cells using PIP2 as substrate preincubated for 15 mins followed by substrate addition and measured after 60 mins by HTRF assay.
Data set [2] concerns the target Voltage-gated inwardly rectifying potassium channel KCNH2 (Homo sapiens, UniProt Q12809). Put plainly: Inhibition of human ERG.
Data set [3] can be described thus: Volume of distribution at steady state in Wistar Han rat at 1 mg/kg, iv administered as infusion for 1 hr by RP LC-MS/MS analysis. The class given is ADME, organism-based. The settings on record: in vivo, read-out: Vdss.
The nature of data set [4]: Half life in Wistar Han rat at 1 mg/kg, iv administered as infusion for 1 hr by RP LC-MS/MS analysis. The class given is ADME, organism-based. The settings on record: in vivo.
The next data set can be described thus: in vitro. The settings on record: human, pooled liver microsomes. Background: Liver microsomes are a subcellular fraction often used to study metabolism.
Data set [5] concerns the target Phosphatidylinositol 4,5-bisphosphate 3-kinase catalytic subunit gamma isoform (Homo sapiens, UniProt P48736). Put plainly: Inhibition of recombinant human N-terminal His6-tagged full length P120gamma expressed in baculovirus infected Sf21 insect cells using PIP2 as substrate preincubated for 15 mins followed by substrate addition and measured after 60 mins by HTRF assay.

For data set [6], the target named is Phosphatidylinositol 3-kinase catalytic subunit type 3 (Homo sapiens, UniProt Q8NEB9). Put plainly: Inhibition of VPS34 in human HL-60 cell extract measured after 2 hrs by kinobeads based chemoproteomic competition binding assay. The class given is tissue-based.
Data set [7] has as its target PI3-kinase p110-alpha/p85-alpha (Homo sapiens, UniProt P42336). Put plainly: Inhibition of recombinant human N-terminal His6-tagged full length P110alpha/full length untagged human p85alpha expressed in baculovirus infected Sf21 insect cells using PIP2 as substrate preincubated for 15 mins followed by substrate addition and measured after 60 mins by HTRF assay. For orientation: Time-resolved FRET reads energy transfer from a long-lived donor to a nearby acceptor.

For data set [8], the target named is T1, Phosphatidylinositol 4,5-bisphosphate 3-kinase catalytic subunit delta isoform (Homo sapiens, UniProt O00329).
T1 sequence (O00329 whole entry): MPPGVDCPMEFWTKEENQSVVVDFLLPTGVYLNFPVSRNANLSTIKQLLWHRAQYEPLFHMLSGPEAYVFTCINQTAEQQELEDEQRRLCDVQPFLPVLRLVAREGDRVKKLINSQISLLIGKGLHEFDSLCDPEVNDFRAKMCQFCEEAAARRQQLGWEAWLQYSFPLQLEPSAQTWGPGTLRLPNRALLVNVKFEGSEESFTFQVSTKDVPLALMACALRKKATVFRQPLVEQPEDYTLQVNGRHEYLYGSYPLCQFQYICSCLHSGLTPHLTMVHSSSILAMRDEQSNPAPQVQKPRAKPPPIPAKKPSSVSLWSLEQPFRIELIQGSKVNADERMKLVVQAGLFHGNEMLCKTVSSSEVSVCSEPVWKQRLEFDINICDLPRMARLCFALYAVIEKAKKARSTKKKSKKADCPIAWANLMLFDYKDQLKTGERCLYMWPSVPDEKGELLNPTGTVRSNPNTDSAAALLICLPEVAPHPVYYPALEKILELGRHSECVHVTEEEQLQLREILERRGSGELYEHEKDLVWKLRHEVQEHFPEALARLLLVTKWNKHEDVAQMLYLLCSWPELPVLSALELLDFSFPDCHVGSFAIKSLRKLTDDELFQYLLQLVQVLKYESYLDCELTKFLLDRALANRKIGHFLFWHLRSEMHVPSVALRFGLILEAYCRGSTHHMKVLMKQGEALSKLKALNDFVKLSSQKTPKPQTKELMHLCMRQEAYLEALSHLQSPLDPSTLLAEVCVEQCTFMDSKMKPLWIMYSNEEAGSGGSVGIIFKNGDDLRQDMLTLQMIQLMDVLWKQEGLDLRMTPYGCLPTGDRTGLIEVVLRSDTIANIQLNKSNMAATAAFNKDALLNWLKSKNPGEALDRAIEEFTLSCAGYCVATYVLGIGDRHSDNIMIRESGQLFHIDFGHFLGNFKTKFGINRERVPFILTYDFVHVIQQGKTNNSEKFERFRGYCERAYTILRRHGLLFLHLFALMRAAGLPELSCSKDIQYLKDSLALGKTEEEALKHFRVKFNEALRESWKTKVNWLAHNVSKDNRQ
Put plainly: Inhibition of PI3Kdelta in human whole blood assessed as reduction in cytostim-stimulated IFNgamma production preincubated for 1 hr followed by cytostim stimulation and measured after 20 hrs by electrochemiluminescence assay.

The target of data set [9] is T1, Phosphatidylinositol 4,5-bisphosphate 3-kinase catalytic subunit delta isoform. Put plainly: Inhibition of PI3Kdelta in human HL-60 cell extract measured after 2 hrs by kinobeads based chemoproteomic competition binding assay. The class given is tissue-based.
Data set [10] in a line: Intrinsic clearance in Wistar Han rat liver microsomes at 0.5 uM measured up to 45 mins in presence of NADPH by LC-MS/MS analysis. It counts as ADME, Microsome. To be noted: read-out: CLH.
The target of data set [11] is PI3-kinase p110-delta/p85-alpha (Homo sapiens, UniProt O00329). Put plainly: Inhibition of recombinant human N-terminal His6-tagged full length P110delta/full length untagged human p85alpha expressed in baculovirus infected Sf21 insect cells using PIP2 as substrate preincubated for 15 mins followed by substrate addition and measured after 60 mins by HTRF assay.
A short description of data set [12]: Clearance in Wistar Han rat at 1 mg/kg, iv administered as infusion for 1 hr by RP LC-MS/MS analysis. The class given is ADME, organism-based. To be noted: in vivo.
A further data set concerns the target serum albumin (Homo sapiens, UniProt P02768). Put plainly: Binding affinity to human serum albumin by HPLC analysis. To be noted: read-out: PB (converted). The class given is ADME, cell-free.
The nature of data set [13]: Lipophilicity, log D of compound by chromatographic method. It counts as physicochemical.
A short description of data set [14]: Permeability of compound in MDCK cells. The settings on record: dog, read-out: permeability. It counts as ADME, cell-based, Canis lupus familiaris.
Data set [15] in a line: Oral bioavailability in Wistar Han rat at 1 mg/kg administered via gavage by RP LC-MS/MS analysis. It counts as ADME, organism-based. To be noted: in vivo.
Data set [16] is described as follows: Solubility in pH 6.5 FaSSIF incubated for 4 hrs using crystalline free base of sample by UV-HPLC method. It counts as physicochemical.
Data set [17] can be described thus: Clearance in Wistar Han rat at 1 mg/kg, po administered via gavage or 1 mg/kg, iv administered as infusion for 1 hr by RP LC-MS/MS analysis. It counts as ADME, organism-based. The settings on record: in vivo.
The nature of data set [18]: Fraction unbound in human blood. The class given is ADME, tissue-based.
Data set [19] can be described thus: Genotoxicity in Salmonella typhimurium by Ames test. It counts as toxicity. To be noted: salmonella enterica subsp. enterica serovar typhimurium. For orientation: In the Ames test, an excess of revertant colonies over the control signals mutagenicity.
For another data set, the system named is Mus musculus. Put plainly: Antiinflammatory activity in house dust-mite-induced Balb/c mouse model of inflammation assessed as reduction in BAL IL-5 level at 0.1 to 10 mg/kg administered 7 days prior to HDM re-challenge and measured 4 hrs post-HDM re-challenge. It counts as functional, organism-based. The settings on record: dose 0.1-10 mg/kg, time 7.0 day.

Data set [20] can be described thus: Half life in Wistar Han rat at 1 mg/kg, po administered via gavage or 1 mg/kg, iv administered as infusion for 1 hr by RP LC-MS/MS analysis. The settings on record: in vivo. It counts as ADME, organism-based.
The nature of data set [21]: Fraction unbound in rat blood. It counts as ADME, tissue-based.
For the next data set, the target named is Cytochrome P450 3A4 (Homo sapiens, UniProt P08684). Put plainly: Time-dependent inhibition of CYP3A4 in human liver microsomes using midazolam as substrate. It counts as ADME.
Data set [22] is described as follows: Volume of distribution at steady state in Wistar Han rat at 1 mg/kg, po administered via gavage or 1 mg/kg, iv administered as infusion for 1 hr by RP LC-MS/MS analysis. The class given is ADME, organism-based. The settings on record: in vivo, read-out: Vdss.
A short description of data set [23]: AUC in Wistar Han rat at 1 mg/kg, po administered via gavage or 1 mg/kg, iv administered as infusion for 1 hr by RP LC-MS/MS analysis. It counts as ADME, organism-based. The arrangement: dose 1 mg/kg. The settings on record: in vivo.

Values after ≈ are worked out from the molar mass of the structure shown. Active and inactive are the calls of the source. The calls are words filed in the database; no cut-off is given here.

PI3-kinase p110-delta/p85-alpha, sequence (P27986 whole entry, one chain of several, the tested form may be a part): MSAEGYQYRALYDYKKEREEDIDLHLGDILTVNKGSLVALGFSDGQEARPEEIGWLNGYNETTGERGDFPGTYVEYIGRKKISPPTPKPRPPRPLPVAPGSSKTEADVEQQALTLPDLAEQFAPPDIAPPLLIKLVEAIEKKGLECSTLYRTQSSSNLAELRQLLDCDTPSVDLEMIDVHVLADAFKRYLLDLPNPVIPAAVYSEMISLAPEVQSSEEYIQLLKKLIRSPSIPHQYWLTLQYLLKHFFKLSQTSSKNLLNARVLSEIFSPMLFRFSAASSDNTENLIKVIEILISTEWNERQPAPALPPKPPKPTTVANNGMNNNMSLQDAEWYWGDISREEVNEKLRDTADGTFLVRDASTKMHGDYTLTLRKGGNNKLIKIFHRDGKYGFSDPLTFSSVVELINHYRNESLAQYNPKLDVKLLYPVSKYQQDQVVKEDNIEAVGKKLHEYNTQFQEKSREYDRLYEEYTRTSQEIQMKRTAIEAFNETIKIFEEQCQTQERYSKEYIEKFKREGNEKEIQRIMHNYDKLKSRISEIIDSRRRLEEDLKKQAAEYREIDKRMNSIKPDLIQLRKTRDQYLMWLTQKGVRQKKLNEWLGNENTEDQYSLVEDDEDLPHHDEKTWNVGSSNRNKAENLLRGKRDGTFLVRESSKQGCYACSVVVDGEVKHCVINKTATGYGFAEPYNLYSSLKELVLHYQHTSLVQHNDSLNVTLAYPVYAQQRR
PI3K p110 beta/p85 alpha, sequence (P27986 whole entry): as the sequence (P27986 whole entry, one chain of several, the tested form may be a part) above
PI3K p110 beta/p85 alpha, sequence (P42338 whole entry): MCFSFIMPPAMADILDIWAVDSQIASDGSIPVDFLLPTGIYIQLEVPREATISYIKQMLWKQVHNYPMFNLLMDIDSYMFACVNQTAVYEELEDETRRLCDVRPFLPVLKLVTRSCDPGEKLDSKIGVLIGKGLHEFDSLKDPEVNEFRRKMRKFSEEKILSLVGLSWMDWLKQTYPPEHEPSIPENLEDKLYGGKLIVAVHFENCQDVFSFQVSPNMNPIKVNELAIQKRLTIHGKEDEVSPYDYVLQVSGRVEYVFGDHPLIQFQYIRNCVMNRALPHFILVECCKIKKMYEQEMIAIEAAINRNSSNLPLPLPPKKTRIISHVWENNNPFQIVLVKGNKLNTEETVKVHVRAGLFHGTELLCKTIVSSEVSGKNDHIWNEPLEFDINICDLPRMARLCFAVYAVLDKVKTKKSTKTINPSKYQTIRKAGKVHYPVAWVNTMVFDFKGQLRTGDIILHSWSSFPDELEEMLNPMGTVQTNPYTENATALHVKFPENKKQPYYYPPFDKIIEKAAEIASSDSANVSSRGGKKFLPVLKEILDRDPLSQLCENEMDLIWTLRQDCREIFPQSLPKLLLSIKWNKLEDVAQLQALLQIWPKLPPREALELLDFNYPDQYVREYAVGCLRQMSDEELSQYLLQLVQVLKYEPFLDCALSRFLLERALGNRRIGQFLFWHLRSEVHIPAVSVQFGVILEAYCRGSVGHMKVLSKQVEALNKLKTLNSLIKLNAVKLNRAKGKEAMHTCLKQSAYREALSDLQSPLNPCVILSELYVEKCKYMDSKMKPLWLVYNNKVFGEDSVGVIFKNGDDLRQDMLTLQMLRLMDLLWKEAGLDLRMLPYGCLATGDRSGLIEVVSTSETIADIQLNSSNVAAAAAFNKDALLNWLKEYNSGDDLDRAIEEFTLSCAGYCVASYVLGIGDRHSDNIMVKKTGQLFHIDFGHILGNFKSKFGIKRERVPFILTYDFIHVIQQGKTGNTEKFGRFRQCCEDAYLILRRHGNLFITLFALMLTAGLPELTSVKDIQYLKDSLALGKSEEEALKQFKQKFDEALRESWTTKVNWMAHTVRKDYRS
PI3-kinase p110-alpha/p85-alpha, sequence (P27986 whole entry): as the sequence (P27986 whole entry, one chain of several, the tested form may be a part) above
PI3-kinase p110-alpha/p85-alpha, sequence (P42336 whole entry): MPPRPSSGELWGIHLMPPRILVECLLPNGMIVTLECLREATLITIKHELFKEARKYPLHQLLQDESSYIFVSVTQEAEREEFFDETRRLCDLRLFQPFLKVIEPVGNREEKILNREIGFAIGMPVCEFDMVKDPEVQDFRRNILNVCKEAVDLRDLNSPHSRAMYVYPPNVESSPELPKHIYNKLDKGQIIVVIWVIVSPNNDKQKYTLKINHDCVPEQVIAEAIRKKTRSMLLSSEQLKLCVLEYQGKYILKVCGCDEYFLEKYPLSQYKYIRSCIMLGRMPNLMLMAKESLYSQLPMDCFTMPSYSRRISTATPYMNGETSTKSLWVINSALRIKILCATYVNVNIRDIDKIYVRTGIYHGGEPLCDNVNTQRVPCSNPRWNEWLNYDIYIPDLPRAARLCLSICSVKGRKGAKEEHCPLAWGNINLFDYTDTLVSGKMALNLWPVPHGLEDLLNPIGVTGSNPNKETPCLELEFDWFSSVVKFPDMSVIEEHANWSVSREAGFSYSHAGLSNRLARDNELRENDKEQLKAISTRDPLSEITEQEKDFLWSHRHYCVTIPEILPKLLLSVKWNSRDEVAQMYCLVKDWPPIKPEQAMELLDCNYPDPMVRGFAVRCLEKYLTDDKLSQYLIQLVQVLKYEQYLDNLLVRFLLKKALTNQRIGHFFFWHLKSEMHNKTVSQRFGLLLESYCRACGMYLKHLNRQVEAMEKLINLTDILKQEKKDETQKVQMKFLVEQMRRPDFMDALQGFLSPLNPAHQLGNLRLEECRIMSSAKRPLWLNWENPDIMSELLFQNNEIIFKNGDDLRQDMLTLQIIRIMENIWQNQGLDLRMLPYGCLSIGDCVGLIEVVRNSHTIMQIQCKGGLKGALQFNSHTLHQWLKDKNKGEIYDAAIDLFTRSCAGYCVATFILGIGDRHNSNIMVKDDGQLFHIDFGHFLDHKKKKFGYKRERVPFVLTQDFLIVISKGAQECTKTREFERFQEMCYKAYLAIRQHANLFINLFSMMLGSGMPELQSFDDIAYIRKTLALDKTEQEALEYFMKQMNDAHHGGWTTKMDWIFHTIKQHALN
Phosphatidylinositol 4,5-bisphosphate 3-kinase catalytic subunit gamma isoform, sequence (P48736 whole entry, canonical isoform): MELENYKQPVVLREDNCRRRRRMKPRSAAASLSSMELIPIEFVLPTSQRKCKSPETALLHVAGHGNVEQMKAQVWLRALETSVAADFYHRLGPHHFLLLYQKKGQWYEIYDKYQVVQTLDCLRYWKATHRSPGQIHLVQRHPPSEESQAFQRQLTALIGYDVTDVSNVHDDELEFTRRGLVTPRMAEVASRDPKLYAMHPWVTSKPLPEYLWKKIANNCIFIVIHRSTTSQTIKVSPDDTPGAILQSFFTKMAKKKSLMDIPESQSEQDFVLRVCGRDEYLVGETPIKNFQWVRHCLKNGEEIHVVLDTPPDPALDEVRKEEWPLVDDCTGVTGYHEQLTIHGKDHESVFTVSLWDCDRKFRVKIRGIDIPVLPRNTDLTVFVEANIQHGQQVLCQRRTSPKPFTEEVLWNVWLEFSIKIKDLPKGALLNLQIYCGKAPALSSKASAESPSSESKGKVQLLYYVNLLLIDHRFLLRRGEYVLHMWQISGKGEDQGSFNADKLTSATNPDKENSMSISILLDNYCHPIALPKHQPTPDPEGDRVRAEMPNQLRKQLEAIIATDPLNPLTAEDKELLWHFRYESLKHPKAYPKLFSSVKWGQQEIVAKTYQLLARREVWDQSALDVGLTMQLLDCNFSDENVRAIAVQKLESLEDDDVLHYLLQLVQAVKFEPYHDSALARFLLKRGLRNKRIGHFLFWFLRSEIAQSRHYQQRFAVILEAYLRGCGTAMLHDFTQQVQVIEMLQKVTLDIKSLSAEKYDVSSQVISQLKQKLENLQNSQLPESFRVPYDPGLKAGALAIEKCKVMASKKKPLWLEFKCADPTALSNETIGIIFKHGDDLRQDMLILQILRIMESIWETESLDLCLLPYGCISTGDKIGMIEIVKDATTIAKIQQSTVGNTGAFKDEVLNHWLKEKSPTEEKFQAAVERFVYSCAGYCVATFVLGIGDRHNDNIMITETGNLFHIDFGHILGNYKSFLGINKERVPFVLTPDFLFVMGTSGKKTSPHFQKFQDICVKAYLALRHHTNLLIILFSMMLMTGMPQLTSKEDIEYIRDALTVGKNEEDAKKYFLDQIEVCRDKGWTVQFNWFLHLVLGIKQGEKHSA
Phosphatidylinositol 3-kinase catalytic subunit type 3, sequence (Q8NEB9 whole entry): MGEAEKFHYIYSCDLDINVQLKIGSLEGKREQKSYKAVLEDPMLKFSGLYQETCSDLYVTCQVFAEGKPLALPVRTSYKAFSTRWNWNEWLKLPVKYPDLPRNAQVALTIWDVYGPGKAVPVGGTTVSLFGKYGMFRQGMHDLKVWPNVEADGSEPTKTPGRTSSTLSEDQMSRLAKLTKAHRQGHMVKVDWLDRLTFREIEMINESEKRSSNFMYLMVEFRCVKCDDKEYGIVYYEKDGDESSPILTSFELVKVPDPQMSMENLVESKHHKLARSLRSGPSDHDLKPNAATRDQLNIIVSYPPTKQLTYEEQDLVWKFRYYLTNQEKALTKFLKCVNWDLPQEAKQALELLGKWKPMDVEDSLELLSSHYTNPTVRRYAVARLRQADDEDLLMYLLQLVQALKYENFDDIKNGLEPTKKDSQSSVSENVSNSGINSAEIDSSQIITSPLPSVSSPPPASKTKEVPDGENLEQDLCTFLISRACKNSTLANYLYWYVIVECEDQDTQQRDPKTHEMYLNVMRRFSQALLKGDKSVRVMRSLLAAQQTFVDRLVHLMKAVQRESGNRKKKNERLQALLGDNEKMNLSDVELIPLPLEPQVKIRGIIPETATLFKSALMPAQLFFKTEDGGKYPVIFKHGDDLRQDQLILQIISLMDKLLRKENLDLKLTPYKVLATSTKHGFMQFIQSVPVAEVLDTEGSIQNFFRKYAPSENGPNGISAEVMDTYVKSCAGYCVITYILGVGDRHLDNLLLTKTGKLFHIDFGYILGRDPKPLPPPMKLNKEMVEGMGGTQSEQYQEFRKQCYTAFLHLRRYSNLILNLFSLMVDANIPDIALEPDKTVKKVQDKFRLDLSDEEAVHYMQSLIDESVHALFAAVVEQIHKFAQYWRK
Description for in vitro: Intrinsic clearance in pooled human liver microsomes at 0.5 uM measured up to 45 mins in presence of NADPH by LC-MS/MS analysis

In [1], `COc1ncc(C2=CCOCC2)cc1S(=O)(=O)Nc1cncc(C#CCN2CCN(C(C)C)CC2)c1` displayed a solubility at 4 h greater than 1000 µg/mL. Moreover, the half-maximal inhibitory concentration (IC50) on PI3K p110 beta/p85 alpha is 5010 nM; in data set [2], greater than 50100 nM; in data set [5], 25100 nM; in data set [6], 100 nM; in data set [7] it was 5010 nM; in data set [8], 50.1 nM. Moreover, the IC50 in [9] was 1.58 nM; in [11], 6.31 nM. Further, in data set [3], the Vd was 0.3 L/kg. Also, in data set [4], the half-life is 1 h. The CLint scaled at 0.75 h, 0.5 µM in “in vitro” was less than 0.4 mL/min/kg. Moreover, in [10], the CLint scaled at 0.5 µM was determined as 0.54 mL/min/kg. The clearance in data set [12] amounted to 8.6 mL/min/kg. Besides, the fraction unbound on serum albumin was 0.17. The same molecule registered a chromatographic logD in data set [13] of 1.8.

Take `COc1ncc(N2CCOCC2)cc1S(=O)(=O)Nc1ccnc(-c2ccc(CN3CCN(C(C)C)CC3)cc2F)c1`: the Papp in data set [14] turned out to be 2.3 ×10⁻⁶ cm/s. Also, the IC50 at PI3K p110 beta/p85 alpha is 5010 nM; in [5], 2000 nM; in [7], 1000 nM; in data set [8], 6.31 nM; in data set [11], 0.794 nM. Also, the CLint scaled at 0.75 h, 0.5 µM in “in vitro” is less than 0.4 mL/min/kg. The same molecule showed a bioavailability in [15] of 46%. In data set [16], this molecule yielded a thermodynamic solubility at 4 h of 899 µg/mL (≈ 1540 µM). The molecule also yielded a clearance in [17] of 3.8 mL/min/kg. The CLint scaled at 0.5 µM in data set [10] was less than 0.46 mL/min/kg. Moreover, the fraction unbound in data set [18] was determined as 0.132; in data set [21], 0.021. Moreover, the Activity result in [19] is listed as “Non-Toxic”. The outcome with Mus musculus was Active. The molecule also had a half-life in data set [20] of 2.6 h. In addition, in [11], the Ki is 0.0126 nM. The TDI entry at Cytochrome P450 3A4 is “Not Active”. In [13], this molecule came in with a chromatographic logD of 1.9. In [22], the Vd amounted to 0.5 L/kg. In data set [23], this molecule yielded an area under the curve (AUC) of 2020 ng·h/mL.

A word on the solubility: it is how much of the substance goes into solution per volume. Higher therefore signals much dissolved substance. As usually defined, the IC50 is the concentration that gives 50% inhibition. By half-life is commonly meant how long it takes for the measured level to halve. For orientation: chromatographic logD means lipophilicity estimated from chromatographic retention. A word on the bioavailability: it is dose-corrected exposure relative to a reference, in per cent. Lower therefore signals little systemic uptake. By solubility (thermodynamic) is commonly meant the concentration in solution at equilibrium with solid. In general, Ki refers to a dissociation constant, usually derived from enzyme kinetics or from competition with a known ligand. Usually AUC stands for concentration integrated over time. Higher therefore signals more exposure.
